Measurements: patent US9839632B2, “Methods and compositions using 4-amino-2-(2,6-dioxo-piperidine-3-yl)-isoindoline-1,3-dione for treatment and management of central nervous system cancers” (CELGENE CORPORATION, priority 2013, dated 2017)

Key:
[1] = system: Raji B lymphoma cells; assay: Orthotopic murine CNS lymphoma model, Raji (bioluminescence tumor growth, survival); assay type: in vivo, athymic mice; conditions: for median survival: Raji model; for in vivo tumor growth (luminescence signal) vs control: P<0.05, n=8
Method: (§1) Animal and housing: Female athymic mice (8-10 weeks old and weighing 20-25 g at the beginning of the study) were purchased from Harlan laboratories. They were housed in a temperature-controlled sterilized room (23±2° C.) with a 12-h light/dark cycle and free access to food and water throughout the study. Animal use was approved by Mayo Foundation Institutional Animal Use and Care Committee and was in accordance with NIH Guide for the Care and Use of Laboratory Animals.
(§2) Orthotopic murine CNS lymphoma models: Two murine CNS lymphoma models were created by intracerebral injection of 2.5×10^4 luciferase-transfected Raji or 1×10^5 luciferase-transfected OCI-LY10 B lymphoma cells in athymic mice under anesthesia using a stereotactic platform. Eight-week-old athymic mice underwent minimum 7-day acclimation/quarantine prior to surgery. Surgery was performed in a laminar flow hood under sterile conditions. Tylenol 300 mg/kg PO was given for analgesia 24 hours before the surgery continuing 48 hours postoperatively. Anesthesia was achieved by inhalation of 1-2% isoflurane. After the mouse became well anesthetized, it was placed in the Kopf stereotactic instrument. A small amount of BNP antibiotic cream (a mixture of Bacitracin, Neomycin and Polymyxin) was smeared on its eyes to prevent infection and corneal damage during surgery. A strip of soft fabric was placed over the mouse's body and tail to prevent excessive heat loss during surgery. The scalp area was cleaned with a 2% solution of Betadine and dried with cotton tipped applicator. A midline sagittal incision was made in the scalp. A small burr hole was drilled in the left skull with a surgical drill (Kopf) or a Dremel drill according to the coordinates (AP: 0.5 mm, LM: 2.5 mm) as determined by reference to the mouse brain atlas by Franklin and Paxinos. Paxinos, 2001. The dura mater was surgically exposed, and a 10 μl-Hamilton syringe with a 26S-gauge beveled needle was lowered into the left cerebral hemisphere up to the depth of 3 mm and 5 μl of tumor cells was slowly infused (0.5 μl/min). The needle was left in place for 5 minutes to prevent reflux and then was slowly removed. The skin was closed with wound clips. The mice recovered from anesthesia and surgery in a warm environment and were not returned to their cages until motor activity returned. Cages were placed on top of a heating pad to minimize the loss of body heat during the recovery. The mice were monitored postoperatively at least twice a day for 5 days or until recovery was complete.
(§3) Bioluminescence imaging of mouse: After intracerebral injection of lymphoma cells, all the mice were subjected to bioluminesence imaging (“BLI”) twice a week starting at day-4 post-intracerebral injection to monitor the real-time in vivo tumor growth. BLI was conducted using a Xenogen Lumina optical imaging system (Caliper Life Sciences, Hopkinton, Mass.). Mice were anesthetized with isofluorane before intraperitoneal injections of luciferin at a dose of 150 mg/kg, providing a saturating substrate concentration for luciferase enzyme. Peak luminescent signals were recorded 10 minutes after luciferin injection. Regions of interest encompassing the intracranial area of signal were defined using Living Image software (Xenogen), and the total photons/s/steradian/cm^2 was recorded.
(§4) In vivo preclinical evaluation of 4-amino-2-(2,6-dioxo-piperidine-3-yl)-isoindoline-1,3-dione in murine CNS lymphoma models: Mice were imaged 4 days after intracerebral injection and were distributed among different treatment groups with equivalent average BLI signal. Real time tumor growth was monitored by BLI. Tumor growth and survival data were analyzed for statistical difference between the groups. Mice were assigned to four experimental groups and one vehicle control group in Raji model. Mice in experimental groups received 4-amino-2-(2,6-dioxo-piperidine-3-yl)-isoindoline-1,3-dione 0.3 mg/kg, 3 mg/kg, 10 mg/kg, or 30 mg/kg by oral gavage daily for 28 days.

[2] = system: OCI-LY10 B lymphoma cells; assay: Orthotopic murine CNS lymphoma model, OCI-LY10 (bioluminescence tumor growth, survival); assay type: in vivo, athymic mice; conditions: for median survival: OCI-LY10 model; for in vivo tumor growth (luminescence signal) vs control: P<0.05, n=8
Method: as §1, §2, §3
as §4, with “days. […]” for “days.”

[3] = system: primary murine peritoneal macrophages; assay: Polarization of IL4-treated primary murine peritoneal macrophages (immunofluorescence); assay type: cell-based; conditions: IL-4 20 ng/ml 48 hours then 10 ug/ml 48 hours
Method: Treatments: In experiments in which IL-4 was used to induce M2 polarization of macrophages, cells were treated with IL-4 (20 ng/ml) for 48 hours followed by treatment with 4-amino-2-(2,6-dioxo-piperidine-3-yl)-isoindoline-1,3-dione (10 ug/ml) or DMSO control for 48 hours. In triple cell culture experiments with lymphoma cells, macrophages, and NK cells, the treatment was with either DMSO or 4-amino-2-(2,6-dioxo-piperidine-3-yl)-isoindoline-1,3-dione (10 ug/ml) for 48 hours.
Immunofluorescence for analysis of macrophage polarization in cell culture experiments: Live cells were fixed in 10% formalin for 30 minutes at room temperature followed by permeabilization with PBS-0.2% Triton X-100 for 2 min. After blocking with PBS-5% goat serum-0.02% Triton X-100 for 30 minutes at 37° C., the cells were incubated overnight at 4° C. with rat monoclonal F4/80 antibody (for primary microglia cells, 1:200 Abcam), rat monoclonal CD11b (for U937, 1:200 Biolegend), rabbit polyclonal Ym1 antibody (for primary microglia cells and primary peritoneal macrophages, 1:200, Stemcell Technologies, Vancouver, Canada), rabbit polyclonal FXIII A antibody (for U937, 1:200, Abcam), mouse monoclonal p-STAT1 antibody (1:200, Abcam), rabbit polyclonal p-STAT6 antibody (1:200, Abcam) or rabbit iNOS antibody (1:200, Calbiochem). […]

[4] = 3 mg/kg oral gavage daily for 28 days
[5] = 10 mg/kg oral gavage daily for 28 days
[6] = 30 mg/kg oral gavage daily for 28 days

Structure (SMILES): Nc1cccc2c1C(=O)N(C1CCC(=O)NC1=O)C2=O (stereo not drawn) [Pomalidomide, 4-amino-2-(2,6-dioxo-piperidine-3-yl)-isoindoline-1,3-dione]
- body weight vs control group ([1]; 3, 10 and 30 mg/kg treatment groups, murine CNS lymphoma model not specified): able to maintain their body weight better than those in control group
- median survival ([1]; 0.3 mg/kg oral gavage daily for 28 days): 24 days
- median survival [1, 4]: 28 days
- median survival [1, 5]: 27 days
- median survival [1, 6]: 31 days
- in vivo tumor growth (luminescence signal) vs control ([1]; Raji model, 3, 10 and 30 mg/kg groups): significantly slower
- in vivo tumor growth (luminescence signal) vs control ([1]; Raji model, 3, 10 and 30 mg/kg groups, listed as 4-amino-2-(2,6-dioxo-piperidine-3-yl)-isoindoline-1,3-dione): reduction of tumor growth
- survival, Kaplan-Meier analysis vs control ([1]; Raji model, 3, 10 and 30 mg/kg groups, p<0.05, n=8): prolongation of survival
- median survival [2, 4]: 32 days
- median survival [2, 5]: 37 days
- median survival [2, 6]: 40 days
- in vivo tumor growth (luminescence signal) vs control ([2]; OCI-LY10 model, 3, 10 and 30 mg/kg groups): significantly slower
- in vivo tumor growth (luminescence signal) vs control ([2]; OCI-LY10 model, 3, 10 and 30 mg/kg groups, listed as 4-amino-2-(2,6-dioxo-piperidine-3-yl)-isoindoline-1,3-dione): reduction of tumor growth
- survival, Kaplan-Meier analysis vs control ([2]; OCI-LY10 model, 3, 10 and 30 mg/kg groups, p<0.05, n=8): prolongation of survival
- polarization status (FXIII A, pSTAT6 vs iNOS, pSTAT1 expression) [3]: from M2 to M1
